Columns and labels:
Format in all cases: cell-based
[1] = tested on: IFN-g secretion from T cells in human whole blood; details: read-out: WB (IFNg) IC50 (nM, Avg)
[2] = tested on: IL-2 secretion from T cells in human whole blood; details: read-out: WB (IL-2) IC50 (nM, Avg)
hKv1.3 = hKv1.3 (Homo sapiens, UniProt P22001); assay: cell-based; details: Kv1.3 (IWQ) IC50 (nM, Avg)
hKv1.3, sequence (P22001 whole entry): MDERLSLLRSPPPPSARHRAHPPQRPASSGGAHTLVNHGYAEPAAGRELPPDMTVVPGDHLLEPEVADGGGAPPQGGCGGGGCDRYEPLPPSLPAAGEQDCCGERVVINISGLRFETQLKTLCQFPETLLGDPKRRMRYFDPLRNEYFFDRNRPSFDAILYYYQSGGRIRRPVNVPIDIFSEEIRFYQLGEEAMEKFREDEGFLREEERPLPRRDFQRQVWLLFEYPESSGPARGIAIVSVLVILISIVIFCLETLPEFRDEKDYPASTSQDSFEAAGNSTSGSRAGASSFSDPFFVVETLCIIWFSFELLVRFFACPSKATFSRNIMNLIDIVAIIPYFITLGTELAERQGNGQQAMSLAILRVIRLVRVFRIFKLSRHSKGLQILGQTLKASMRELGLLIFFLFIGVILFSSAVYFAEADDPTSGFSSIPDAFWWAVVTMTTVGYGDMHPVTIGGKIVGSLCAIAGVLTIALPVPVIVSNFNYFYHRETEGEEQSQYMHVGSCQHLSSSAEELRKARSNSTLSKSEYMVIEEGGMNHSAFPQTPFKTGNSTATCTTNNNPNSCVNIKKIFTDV

Structure (SMILES): CC[C@H](C)[C@@H]1NC(=O)[C@@H](NC(=O)[C@H](CO)NC(=O)[C@@H](N)CCCNC(=N)N)CSSC[C@@H](C(=O)N[C@@H](C)C(=O)O)NC(=O)[C@H]([C@@H](C)O)NC(=O)CNC(=O)[C@@H]2CSSC[C@@H]3NC(=O)[C@H](CCCCN)NC(=O)[C@H](Cc4ccccc4)NC(=O)[C@H](C)NC(=O)[C@H]([C@@H](C)O)NC(=O)[C@H](CSSC[C@H](NC(=O)[C@H](Cc4ccccc4)NC(=O)[C@H](CO)NC(=O)[C@H](CC(C)C)NC(=O)[C@H](CCCNC(=N)N)NC(=O)[C@H](Cc4ccc(O)cc4)NC(=O)[C@H](CCCCN)NC(=O)[C@H](CCC(N)=O)NC(=O)[C@H](CO)NC(=O)[C@H](Cc4c[nH]cn4)NC(=O)[C@H](CCCCN)NC3=O)C(=O)N[C@@H](CCCNC(=N)N)C(=O)N[C@@H](CCCCN)C(=O)N[C@@H]([C@@H](C)O)C(=O)N2)NC(=O)[C@H](CCCNC(=N)N)NC(=O)[C@H](CO)NC(=O)[C@H](CCCCN)NC(=O)[C@@H]2CCCN2C(=O)[C@H]([C@@H](C)CC)NC(=O)[C@H]([C@@H](C)O)NC(=O)[C@H](CC(=O)O)NC1=O [[Lys16,Gln21]ShK-Ala]
- IC50 [1]: 0.206 nM
- IC50 [2]: 0.168 nM
- IC50 (hKv1.3): 4.01 nM

Structure (SMILES): CC[C@H](C)[C@@H]1NC(=O)[C@@H](NC(=O)[C@H](CO)NC(=O)[C@@H](N)CCCNC(=N)N)CSSC[C@@H](C(=O)O)NC(=O)[C@H]([C@@H](C)O)NC(=O)CNC(=O)[C@@H]2CSSC[C@@H]3NC(=O)[C@H](CCC(N)=O)NC(=O)[C@H](Cc4ccccc4)NC(=O)[C@H](C)NC(=O)[C@H](CCCNC(=N)N)NC(=O)[C@H](CSSC[C@H](NC(=O)[C@H](Cc4ccccc4)NC(=O)[C@H](CO)NC(=O)[C@H](CC(C)C)NC(=O)[C@H](CCCNC(=N)N)NC(=O)[C@H](Cc4ccc(O)cc4)NC(=O)[C@H](CCCCN)NC(=O)[C@H](CCSC)NC(=O)[C@H](CO)NC(=O)[C@H](Cc4c[nH]cn4)NC(=O)[C@H](CCCCN)NC3=O)C(=O)N[C@@H](CCCNC(=N)N)C(=O)N[C@@H](CCCCN)C(=O)N[C@@H]([C@@H](C)O)C(=O)N2)NC(=O)[C@H](CCCNC(=N)N)NC(=O)[C@H](CO)NC(=O)[C@H](CCCCN)NC(=O)[C@@H]2CCCN2C(=O)[C@H]([C@@H](C)CC)NC(=O)[C@H]([C@@H](C)O)NC(=O)[C@H](CC(=O)O)NC1=O [[Arg13]ShK]
- IC50 [1]: 0.629 nM
- IC50 [2]: 0.503 nM
- IC50 (hKv1.3): 0.149 nM

Structure (SMILES): CCC[C@@H]1NC(=O)[C@H](CO)NC(=O)[C@H](Cc2c[nH]cn2)NC(=O)[C@H](CCCCN)NC(=O)[C@@H]2CSSC[C@@H]3NC(=O)[C@H]([C@@H](C)O)NC(=O)[C@H](CCCCN)NC(=O)[C@H](CCCNC(=N)N)NC(=O)[C@H](CSSC[C@H](NC(=O)[C@H](CCCNC(=N)N)NC(=O)[C@H](CO)NC(=O)[C@H](CCCCN)NC(=O)[C@@H]4CCCN4C(=O)[C@H]([C@@H](C)CC)NC(=O)[C@H]([C@@H](C)O)NC(=O)[C@H](CC(=O)O)NC(=O)[C@H]([C@@H](C)CC)NC(=O)[C@@H](NC(=O)[C@H](CO)NC(=O)[C@@H](N)CCCNC(=N)N)CSSC[C@@H](C(N)=O)NC(=O)[C@H]([C@@H](C)O)NC(=O)CNC3=O)C(=O)N[C@@H]([C@@H](C)O)C(=O)N[C@@H](C)C(=O)N[C@@H](Cc3ccccc3)C(=O)N[C@@H](CCCCN)C(=O)N2)NC(=O)[C@H](Cc2ccccc2)NC(=O)[C@H](CO)NC(=O)[C@H](CC(C)C)NC(=O)[C@H](CCCNC(=N)N)NC(=O)[C@H](Cc2ccc(O)cc2)NC(=O)[C@H](CCCCN)NC1=O [[Lys16, Nva21]ShK-amide]
- IC50 [1]: 0.932 nM
- IC50 [2]: 0.486 nM
- IC50 (hKv1.3): 0.47 nM

Structure (SMILES): CC[C@H](C)[C@@H]1NC(=O)[C@@H](NC(=O)[C@H](CO)NC(=O)[C@@H](N)CCCCN)CSSC[C@@H](C(=O)O)NC(=O)[C@H]([C@@H](C)O)NC(=O)CNC(=O)[C@@H]2CSSC[C@@H]3NC(=O)[C@H](CCC(N)=O)NC(=O)[C@H](Cc4ccccc4)NC(=O)[C@H](C)NC(=O)[C@H]([C@@H](C)O)NC(=O)[C@H](CSSC[C@H](NC(=O)[C@H](Cc4ccccc4)NC(=O)[C@H](CO)NC(=O)[C@H](CC(C)C)NC(=O)[C@H](CCCNC(=N)N)NC(=O)[C@H](Cc4ccc(O)cc4)NC(=O)[C@H](CCCCN)NC(=O)[C@H](CCSC)NC(=O)[C@H](CO)NC(=O)[C@H](Cc4c[nH]cn4)NC(=O)[C@H](CCCCN)NC3=O)C(=O)N[C@@H](CCCNC(=N)N)C(=O)N[C@@H](CCCCN)C(=O)N[C@@H]([C@@H](C)O)C(=O)N2)NC(=O)[C@H](CCCNC(=N)N)NC(=O)[C@H](CO)NC(=O)[C@H](CCCCN)NC(=O)[C@@H]2CCCN2C(=O)[C@H]([C@@H](C)CC)NC(=O)[C@H]([C@@H](C)O)NC(=O)[C@H](CC(=O)O)NC1=O [[Lys1]ShK]
- IC50 [1]: 0.073 nM
- IC50 [2]: 0.035 nM
- IC50 (hKv1.3): 0.158 nM

Structure (SMILES): CC[C@H](C)[C@@H]1NC(=O)[C@H](CO)NC(=O)[C@H](Cc2c[nH]cn2)NC(=O)[C@H](CCCCN)NC(=O)[C@@H]2CSSC[C@@H]3NC(=O)[C@H]([C@@H](C)O)NC(=O)[C@H](CCCCN)NC(=O)[C@H](CCCNC(=N)N)NC(=O)[C@H](CSSC[C@H](NC(=O)[C@H](CCCNC(=N)N)NC(=O)[C@H](CO)NC(=O)[C@H](CCCCN)NC(=O)[C@@H]4CCCN4C(=O)[C@H]([C@@H](C)CC)NC(=O)[C@H]([C@@H](C)O)NC(=O)[C@H](CC(=O)O)NC(=O)[C@H]([C@@H](C)CC)NC(=O)[C@@H](NC(=O)[C@H](CO)NC(=O)[C@@H](N)CCCNC(=N)N)CSSC[C@@H](C(N)=O)NC(=O)[C@H]([C@@H](C)O)NC(=O)CNC3=O)C(=O)N[C@@H]([C@@H](C)O)C(=O)N[C@@H](C)C(=O)N[C@@H](Cc3ccccc3)C(=O)N[C@@H](CCCCN)C(=O)N2)NC(=O)[C@H](Cc2ccccc2)NC(=O)[C@H](CO)NC(=O)[C@H](CC(C)C)NC(=O)[C@H](CCCNC(=N)N)NC(=O)[C@H](Cc2ccc(O)cc2)NC(=O)[C@H](CCCCN)NC1=O [[Lys16, Ile21]ShK-amide]
- IC50 [1]: 5.77 nM
- IC50 [2]: 2.49 nM
- IC50 (hKv1.3): 0.14 nM

Structure (SMILES): CC[C@H](C)[C@@H]1NC(=O)[C@@H](NC(=O)[C@H](CCCNC(=N)N)NC(=O)[C@@H](N)CCCNC(=N)N)CSSC[C@@H](C(=O)O)NC(=O)[C@H]([C@@H](C)O)NC(=O)CNC(=O)[C@@H]2CSSC[C@@H]3NC(=O)[C@H](CCC(N)=O)NC(=O)[C@H](Cc4ccccc4)NC(=O)[C@H](C)NC(=O)[C@H]([C@@H](C)O)NC(=O)[C@H](CSSC[C@H](NC(=O)[C@H](Cc4ccccc4)NC(=O)[C@H](CO)NC(=O)[C@H](CC(C)C)NC(=O)[C@H](CCCNC(=N)N)NC(=O)[C@H](Cc4ccc(O)cc4)NC(=O)[C@H](CCCCN)NC(=O)[C@H](CCSC)NC(=O)[C@H](CO)NC(=O)[C@H](Cc4c[nH]cn4)NC(=O)[C@H](CCCCN)NC3=O)C(=O)N[C@@H](CCCNC(=N)N)C(=O)N[C@@H](CCCCN)C(=O)N[C@@H]([C@@H](C)O)C(=O)N2)NC(=O)[C@H](CCCNC(=N)N)NC(=O)[C@H](CO)NC(=O)[C@H](CCCCN)NC(=O)[C@@H]2CCCN2C(=O)[C@H]([C@@H](C)CC)NC(=O)[C@H]([C@@H](C)O)NC(=O)[C@H](CC(=O)O)NC1=O [[Arg2]ShK]
- IC50 [1]: 0.087 nM
- IC50 [2]: 0.097 nM
- IC50 (hKv1.3): 0.074 nM

Structure (SMILES): CCCC[C@@H]1NC(=O)[C@H](CO)NC(=O)[C@H](Cc2c[nH]cn2)NC(=O)[C@H](CCCCN)NC(=O)[C@@H]2CSSC[C@@H]3NC(=O)[C@H]([C@@H](C)O)NC(=O)[C@H](CCCNC(=N)N)NC(=O)[C@H](CCCCN)NC(=O)[C@H](CSSC[C@H](NC(=O)[C@H](CCCNC(=N)N)NC(=O)[C@H](CO)NC(=O)[C@H](CCCCN)NC(=O)[C@@H]4CCCN4C(=O)[C@H]([C@@H](C)CC)NC(=O)[C@H]([C@@H](C)O)NC(=O)[C@H](CC(=O)O)NC(=O)[C@H]([C@@H](C)CC)NC(=O)[C@@H](NC(=O)[C@H](CO)NC(=O)[C@@H](N)CCCNC(=N)N)CSSC[C@@H](C(N)=O)NC(=O)[C@H]([C@@H](C)O)NC(=O)CNC3=O)C(=O)N[C@@H]([C@@H](C)O)C(=O)N[C@@H](C)C(=O)N[C@@H](Cc3ccccc3)C(=O)N[C@@H](CCCCN)C(=O)N2)NC(=O)[C@H](Cc2ccccc2)NC(=O)[C@H](CO)NC(=O)[C@H](CC(C)C)NC(=O)[C@H](CCCNC(=N)N)NC(=O)[C@H](Cc2ccc(O)cc2)NC(=O)[C@H](CCCCN)NC1=O [[Lys16,29; Nle21,Arg30]ShK-amide]
- IC50 [1]: 2.84 nM
- IC50 [2]: 1.72 nM
- IC50 (hKv1.3): 0.484 nM

Structure (SMILES): CC[C@H](C)[C@@H]1NC(=O)[C@@H](NC(=O)[C@H](CO)NC(=O)[C@@H](N)CCCNC(=N)N)CSSC[C@@H](C(=O)O)NC(=O)[C@H]([C@@H](C)O)NC(=O)CNC(=O)[C@@H]2CSSC[C@@H]3NC(=O)[C@H](CCC(N)=O)NC(=O)[C@H](Cc4ccccc4)NC(=O)[C@H](C)NC(=O)[C@H]([C@@H](C)O)NC(=O)[C@H](CSSC[C@H](NC(=O)[C@H](C)NC(=O)[C@H](CO)NC(=O)[C@H](CC(C)C)NC(=O)[C@H](CCCNC(=N)N)NC(=O)[C@H](Cc4ccc(O)cc4)NC(=O)[C@H](CCCCN)NC(=O)[C@H](CCSC)NC(=O)[C@H](CO)NC(=O)[C@H](Cc4c[nH]cn4)NC(=O)[C@H](CCCCN)NC3=O)C(=O)N[C@@H](CCCNC(=N)N)C(=O)N[C@@H](CCCCN)C(=O)N[C@@H]([C@@H](C)O)C(=O)N2)NC(=O)[C@H](CCCNC(=N)N)NC(=O)[C@H](CO)NC(=O)[C@H](CCCCN)NC(=O)[C@@H]2CCCN2C(=O)[C@H]([C@@H](C)CC)NC(=O)[C@H]([C@@H](C)O)NC(=O)[C@H](CC(=O)O)NC1=O [[Ala27]ShK]
- IC50 [1]: 8.78 nM
- IC50 [2]: 1.57 nM
- IC50 (hKv1.3): 0.207 nM

Source: US20120121591A1 (priority 2009, published 2012)
